Patent US20240158393A1, “PYRIDONE COMPOUNDS AND METHODS OF USE” (Exelixis, Inc., priority 2021, published 2024)
pIC50: −log10 of the molar value.

Tests used:
Human Mer = target: T1, Human Mer (Homo sapiens, UniProt Q12866); experiment: Human Mer kinase assay (33P radiometric / HTRF KinEase); format: biochemical; details: protocols of Examples C-1 and/or C-2
T1 construct: Human Mer (residues R557-E882 with H628Q and R794A, 0.7 nM); purchased Eurofins Pharma Discovery Services UK Limited (KinaseProfiler service)
T1 sequence (Q12866 557-882 limits assumed): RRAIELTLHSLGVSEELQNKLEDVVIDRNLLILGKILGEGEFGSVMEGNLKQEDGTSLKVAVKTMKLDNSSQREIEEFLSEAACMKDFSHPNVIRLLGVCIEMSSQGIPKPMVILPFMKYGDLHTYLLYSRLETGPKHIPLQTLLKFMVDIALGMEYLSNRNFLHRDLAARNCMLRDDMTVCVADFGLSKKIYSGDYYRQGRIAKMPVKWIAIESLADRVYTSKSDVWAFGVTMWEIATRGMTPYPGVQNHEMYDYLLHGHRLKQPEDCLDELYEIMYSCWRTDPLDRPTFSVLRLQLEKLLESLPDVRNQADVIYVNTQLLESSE
In short: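 Two formats yield IC50 values. HTRF KinEase used MER residues 528-999 with ATP at Km (40 μM), 1 μM biotin-peptide, 60 min RT, […], 10 concentrations. 33P filter assay used 0.7 nM Mer R557-E882 (H628Q/R794A), 10 μM ATP, 250 μM peptide, 40 min RT, top 1 μM.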

Human Met = target: T2, Human Met (Homo sapiens, UniProt P08581); experiment: Human Met kinase assay (33P radiometric / HTRF KinEase); format: biochemical; details: protocols of Examples D-1 and/or D-2; read-out: c-Met IC50
T2 construct: Human MET (residues 956-1390)
In short: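 Two formats gave IC50s by curve fitting. HTRF KinEase used MET residues 956-1390 with 1 μM biotin-peptide and 3.0 μM ATP (Km) for 40 min at room temperature, ten doses in 3% DMSO, 665/620 nm read. The 33P transfer assay used mutant Met R974-S1390 A1209G/V1290L (3.4 nM), 10 μM ATP, 250 μM peptide, pH 7.0, 40 min, nine doses from 1 μM.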

T2 sequence (P08581 974-1390 limits assumed): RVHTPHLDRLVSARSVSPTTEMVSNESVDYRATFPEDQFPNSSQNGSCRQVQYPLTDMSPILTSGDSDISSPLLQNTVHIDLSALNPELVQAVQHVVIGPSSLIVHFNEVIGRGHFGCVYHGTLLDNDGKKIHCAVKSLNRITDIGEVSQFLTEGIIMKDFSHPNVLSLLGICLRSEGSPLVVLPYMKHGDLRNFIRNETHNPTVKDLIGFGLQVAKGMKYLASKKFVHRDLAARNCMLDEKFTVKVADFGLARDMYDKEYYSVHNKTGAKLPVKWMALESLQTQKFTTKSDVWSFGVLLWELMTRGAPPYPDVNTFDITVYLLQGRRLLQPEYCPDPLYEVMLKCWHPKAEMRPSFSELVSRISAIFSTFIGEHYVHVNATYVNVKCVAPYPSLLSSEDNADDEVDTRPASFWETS

| Compound | pIC50 (Human Mer) | pIC50 (Human Met) |
| --- | --- | --- |
| COc1cc2nccc(Oc3ccc(NC(=O)c4c(C)n(C)c(C)c(N5CCCCC5)c4=O)cc3F)c2nc1OC [Compound 90, N-[4-[(6,7-dimethoxy-1,5-naphthyridin-4-yl)oxy]-3-fluorophenyl]-1,2,6-trimethyl-4-oxo-5-piperidin-1-ylpyridine-3-carboxamide] | ≥ 7.00 | < 6.52 |
| COc1cnc2c(Oc3ccc(NC(=O)c4c(C)nc(C)c(C(N)=O)c4O)cc3F)ccnc2c1 [Compound 91, 3-N-[3-Fluoro-4-[(7-methoxy-1,5-naphthyridin-4-yl)oxy]phenyl]-4-hydroxy-2,6-dimethylpyridine-3,5-dicarboxamide] | < 6.52 | < 6.52 |
| COc1cc2nccc(Oc3ccc(NC(=O)c4c(C)n(C)c(C)c(C(=O)O)c4=O)cc3F)c2nc1OC [Compound 92, 5-[[4-[(6,7-Dimethoxy-1,5-naphthyridin-4-yl)oxy]-3-fluorophenyl]carbamoyl]-1,2,6-trimethyl-4-oxopyridine-3-carboxylic acid] | < 6.52 | < 6.52 |
| COc1cc2nccc(Oc3ccc(NC(=O)c4c(C)nc(C)c(C(=O)N(C)C)c4O)cc3F)c2nc1OC [Compound 93, 3-N-[4-[(6,7-Dimethoxy-1,5-naphthyridin-4-yl)oxy]-3-fluorophenyl]-4-hydroxy-5-N,5-N,2,6-tetramethylpyridine-3,5-dicarboxamide] | < 6.52 | ≥ 7.00 |
| COc1cc2nccc(Oc3ccc(NC(=O)c4c(C)nc(C)c(C(=O)NC(C)C)c4O)cc3F)c2nc1OC [Compound 94, 3-N-[4-[(6,7-Dimethoxy-1,5-naphthyridin-4-yl)oxy]-3-fluorophenyl]-4-hydroxy-2,6-dimethyl-5-N-propan-2-ylpyridine-3,5-dicarboxamide] | ≥ 7.00 | < 6.52 |
| COc1cc2nccc(Oc3ccc(NC(=O)c4c(C)n(C)c(C)c(C(=O)N(C)C)c4=O)cc3F)c2nc1OC [Compound 95, 5-N-[4-[(6,7-Dimethoxy-1,5-naphthyridin-4-yl)oxy]-3-fluorophenyl]-3-N,3-N,1,2,6-pentamethyl-4-oxopyridine-3,5-dicarboxamide] | < 6.52 | < 6.52 |
| COc1cc2nccc(Oc3ccc(NC(=O)c4c(C)n(C)c(C)c(C(=O)NC5CC5)c4=O)cc3F)c2nc1OC [Compound 96, 3-N-Cyclopropyl-5-N-[4-[(6,7-dimethoxy-1,5-naphthyridin-4-yl)oxy]-3-fluorophenyl]-1,2,6-trimethyl-4-oxopyridine-3,5-dicarboxamide] | < 6.52 | < 6.52 |
| CNC(=O)c1c(C)nc(C)c(C(=O)Nc2ccc(Oc3ccnc4cc(OC)c(OC)nc34)c(F)c2)c1O [Compound 97, 3-N-[4-[(6,7-Dimethoxy-1,5-naphthyridin-4-yl)oxy]-3-fluorophenyl]-4-hydroxy-5-N,2,6-trimethylpyridine-3,5-dicarboxamide] | < 6.52 | < 6.52 |
| COc1cc2nccc(Oc3ccc(NC(=O)c4c(C)nc(C)c(C(=O)NC5CC5)c4O)cc3F)c2nc1OC [Compound 98, 5-N-Cyclopropyl-3-N-[4-[(6,7-dimethoxy-1,5-naphthyridin-4-yl)oxy]-3-fluorophenyl]-4-hydroxy-2,6-dimethylpyridine-3,5-dicarboxamide] | < 6.52 | < 6.52 |
| COc1cc2nccc(Oc3ccc(NC(=O)c4c5n(c(C)c(C6=CCCC6)c4=O)CCOC5)cc3)c2nc1OC [Compound 99, 7-(Cyclopenten-1-yl)-N-[4-[(6,7-dimethoxy-1,5-naphthyridin-4-yl)oxy]phenyl]-6-methyl-8-oxo-3,4-dihydro-1H-pyrido[2,1-c][1,4]oxazine-9-carboxamide] | ≥ 7.00 | ≥ 7.00 |
| COc1cc2nccc(Oc3ccc(NC(=O)c4c5n(c(C)c(C6=CCCCC6)c4=O)CCOC5)cc3)c2nc1OC [Compound 100, 7-(Cyclohexen-1-yl)-N-[4-[(6,7-dimethoxy-1,5-naphthyridin-4-yl)oxy]phenyl]-6-methyl-8-oxo-3,4-dihydro-1H-pyrido[2,1-c][1,4]oxazine-9-carboxamide] | ≥ 7.00 | ≥ 7.00 |
| COc1cc2nccc(Oc3ccc(NC(=O)c4c5n(cc(C6=CCCCC6)c4=O)CCOC5)cc3)c2nc1OC [Compound G1-5, 7-(Cyclohexen-1-yl)-N-[4-[(6,7-dimethoxy-1,5-naphthyridin-4-yl)oxy]phenyl]-8-oxo-3,4-dihydro-1H-pyrido[2,1-c][1,4]oxazine-9-carboxamide] | ≥ 7.00 | ≥ 7.00 |
| COc1cc2nccc(Oc3ccc(NC(=O)c4c5n(cc(C6=CCOCC6)c4=O)CCOC5)cc3)c2nc1OC [Compound G1-8, 7-(3,6-Dihydro-2H-pyran-4-yl)-N-[4-[(6,7-dimethoxy-1,5-naphthyridin-4-yl)oxy]phenyl]-8-oxo-3,4-dihydro-1H-pyrido[2,1-c][1,4]oxazine-9-carboxamide] | ≥ 7.00 | < 6.52 |
